Measurements from patent EP0843554B1, “ASCORBYL-PHOSPHORYL-CHOLESTEROL” (AVON PRODUCTS, INC., priority 1996, dated 1997).

Tested on: cultured human skin fibroblasts
Assay: [^3H]-Proline Incorporation Assay (collagen biosynthesis)
Type: cell-based
Settings: fibroblasts incubated with 11.3, 22.5 and 45 µg/ml for 48 hours; radioactive counts of newly synthesized [^3H]-hydroxyproline; numbers only in a chart image
Experimental: An art-recognized [^3H]-Proline Incorporation Assay was performed with different doses of 3'-(L-ascorbyl-2-phosphoryl)-cholesterol. Juva, Anal. Biochem., Vol. 15, pages 77-83 (1966); Booth, Biochim. Biophys. Acta, Vol. 675, pages 117-122 (1981).
Fibroblasts were incubated with 0 µg/ml, 11.3 µg/ml, 22.5 µg/ml and 45 µg/ml of 3'-(L-ascorbyl-2-phosphoryl)-cholesterol for a total of 48 hours. After the first 24 hours [^3H]-labeled proline was added to the culture. Following the second 24 hour period the cells were harvested and prepared for the collagen biosynthesis assay.
Protease inhibitors were added to prevent degradation of collagen and other proteins. The cell layer was scraped into a solution containing 0.4 M NaCl and 0.01 M Tris (pH 7.5). Extracts were sonicated to disrupt cell membranes. Separate volumes of the cell-containing solution (1 ml each) were dialyzed overnight against several changes of deionised water. The retentate was removed from dialysis and hydrolyzed in 6 N hydrochloric acid at 120°C overnight. The assay was performed using an oxidation process with 2 M chloramine-T. Samples were analyzed for radioactive counts, which represent the amount of newly synthesized [^3H]-hydroxyproline -- an index for new collagen synthesis.

SMILES: CC(C)CCC[C@@H](C)[C@H]1CC[C@H]2[C@@H]3CC=C4C[C@@H](OP(=O)(O)OC5=C(O)[C@@H]([C@@H](O)CO)OC5=O)CC[C@]4(C)[C@H]3CC[C@]12C [3'-(L-ascorbyl-2-phosphoryl)-cholesterol]
- production of new collagen: increased production of new collagen by human skin fibroblasts in a dose-dependent manner
